Drawing on PubChem BioAssay AID1159563 (GlaxoSmithKline (GSK), 2015), this text covers IC50 for 34 molecules.

Each structure is given as a SMILES string. Active and inactive are the calls of the source. The rule behind the calls is not given here.

As usually defined, the IC50 is the concentration needed to halve the response being measured.

This assay has as its system HepG2 cytotoxicity. Briefly: human hepatoma cell viability loss – cytotoxicity control (AID 1159563).
For the molecule `CC(C)(C)C(Cn1ccnc1)NC(=O)c1ccc2nc(C3CC3)oc2c1` (centres undefined), the IC50 was > 100 µM (inactive). As for `CN(Cc1nnnn1C1CCN(Cc2ccc(-n3ccnc3)cc2)CC1)c1ccc(F)cc1F`, the IC50 was > 100 µM (inactive). Take `O=C(CN(c1cccc(C(F)(F)F)c1)S(=O)(=O)c1ccc(Cl)cc1)NCc1ccc(F)c(F)c1`: the IC50 is > 100 µM (inactive). For `O=c1[nH]c(NCCCNCc2cc(Br)cc(Br)c2)nc2ccsc12` the value was 50 µM; for `NCC(Cc1ccccc1)NC(=O)c1cnc(-c2c[nH]c3ncccc23)s1` (centres undefined), 79 µM. To `Cc1cc2nc(CN(C)Cc3ncccc3C)[nH]c2cc1C` belongs 40 µM; to `COc1ccccc1-c1c(C)[nH]c2nc(N)nc(C)c12`, > 100 µM (inactive); to `O=C(c1cccc(Nc2ncc(-c3ccc4c(c3)OCO4)cn2)c1)N1CCSC1`, 10 µM. For `CNS(=O)(=O)c1ccccc1Nc1nc(Nc2ccnn2C)ncc1Cl` the value was 50 µM; for `CC(C)CC(=O)NC(c1cccs1)c1ccc2cccnc2c1O` (centres undefined), > 100 µM (inactive); for `O=C(Cn1cnc([N+](=O)[O-])n1)Nc1ccc(Cl)cc1C(=O)c1ccccc1`, > 100 µM (inactive). Regarding `Clc1ccc(C(CC2CCCCO2)Cn2cncn2)c(Cl)c1` (centres undefined), the IC50 was > 100 µM (inactive). For `COCCn1cnc2cc(NC(=O)C3CCCCC3)cc(C(=O)N3CCc4sccc4C3)c21` the value was > 100 µM (inactive); for `O=C(Nc1nc2cc(Cl)ccc2o1)c1cccc(Cl)c1`, > 100 µM (inactive). For `O=C(NCCNc1noc(-c2ccc([N+](=O)[O-])cc2)n1)c1ccc(Cl)cc1` the value was > 100 µM (inactive); for `COc1ccc(S(=O)(=O)Nc2ccc(C(=O)Nc3nc(-c4ccccn4)cs3)cc2)cc1`, 63 µM. To `O=C(O)[C@H]1C[C@@H]1c1ccc(-c2ccc(CN(CCc3ccccn3)C(=O)C3CCC3)cc2)cc1` belongs > 100 µM (inactive). As to `O=C(CN(Cc1ccccn1)Cc1ccccn1)NCc1ccc2c(c1)OCO2`, the IC50 was > 160 µM (inactive). Take `CCc1cccc(CC)c1-n1c(SCC(=O)N2CC(=O)Nc3ccccc32)nnc1-c1cccnc1`: the IC50 is > 100 µM (inactive). For `Nc1nc(-c2ccccn2)nc(-n2nc(-c3ccccc3)cc2N)n1` the value was 10 µM; for `Cn1c(CN2CCN(c3ncc(C(F)(F)F)cc3Cl)CC2)nc2ccncc21`, > 100 µM (inactive); for `CCOc1ccc(CC(=O)N2c3ccccc3CC2C(=O)NC)cc1` (centres undefined), > 100 µM (inactive).

Consider `Clc1ccc(Sc2cnccc2N2CCOCC2)cc1`, for which the IC50 was > 100 µM (inactive). For `CCN(CC)c1ncc(C(=O)c2ccc([N+](=O)[O-])o2)s1` the value was 16 µM; for `CNC(=O)C1Cc2ccccc2N1C(=O)Cc1ccc(OC)cc1` (centres undefined), > 100 µM (inactive); for `Cc1cccnc1CN1CCN(CCCOc2ccc(-c3ccc(C(N)=O)cc3)cc2)CC1`, > 100 µM (inactive). To `CC(C)C[C@H](NC(=O)c1csc(-c2cccs2)n1)C(=O)NC1(C#N)CC1` belongs > 100 µM (inactive); to `CC(C)C[C@H](NC(=O)c1ccc(-c2ccccc2)o1)C(=O)NC1(C#N)CC1`, > 100 µM (inactive); to `CNS(=O)(=O)c1ccccc1Nc1nc(Nc2cc(C)nn2C)ncc1Cl`, 4 µM. To `CC(C(=O)Nc1ccc(Br)cc1)N1CCN(c2ccc([N+](=O)[O-])cc2)CC1` (centres undefined) belongs > 100 µM (inactive); to `COc1cc(C2SCC(=O)Nc3c2c(C)nn3-c2nc3ccccc3s2)cc(OC)c1O` (centres undefined), > 100 µM (inactive); to `COc1ccc(C2C3CCCCC3(O)CCN2CC(=O)Nc2ccc(Cl)cc2Cl)cc1` (centres undefined), > 100 µM (inactive). For `COc1ccccc1C(=O)Nc1nnc(-c2ccc3c(c2)OCO3)s1`, the IC50 is > 100 µM (inactive).

For the molecule `CCC(CC)C(=O)Nc1ccc(-c2nnc(-c3ccc(OC)cc3)o2)cc1`, the IC50 is > 100 µM (inactive).
